Entries after “also recorded” stand apart in the source; their conditions may differ.
Columns and labels:
[1] = biological target: 5-HT1 receptor; test: binding to 5-HT1 sites ([3H]serotonin displacement, rat brain frontal cortex); design: species or system rat (Wistar); conditions: for IC50: 2 nM [3H]serotonin, rat frontal cortex; for Selectivity Ratio: IC50 5HT2 / IC50 5HT1, values greater than 1 indicate selectivity for the 5HT1 receptor
Procedure: All radioactive ligands were obtained from New England Nuclear, Boston, Mass., USA. Specific binding was determined as the difference between total binding and nonspecific binding. Eleven concentrations of each of the compounds tested were used between 0.1 and 10,000 nM. All samples were run in duplicate.

[2] = biological target: T1, 5-HT2 receptor (Rattus norvegicus, UniProt P14842); test: binding to 5-HT2 sites ([3H]spiperone displacement, rat brain frontal cortex); design: species or system rat (Wistar)
T1 construct: Rat brain frontal cortex from male Wistar rats; from tissue; host or cells: rat brain frontal cortex (male Wistar), membrane pellet
Procedure: The pellet from the frontal cortex homogenates was suspended in 0.05 molar (M) Tris buffer containing 10 micromolar (μM) pargyline and 4 millimolar (mM) Ca^++ to give a final protein concentration of 250-350 microgram (μg) per sample. […] All radioactive ligands were obtained from New England Nuclear, Boston, Mass., USA. Specific binding was determined as the difference between total binding and nonspecific binding. Eleven concentrations of each of the compounds tested were used between 0.1 and 10,000 nM. All samples were run in duplicate.

[3] = tested on: serotonin and 5-HIAA in rat brain; test: animal or person; type: in vivo, rat (Wistar); conditions: sc, subcutaneous, 1 h after injection, p<0.05 vs control, read-out: Minimum effective dose suppressing 5-HIAA
Procedure: Male Wistar rate (HSD/[WI]BR) weighing about 150 g were kept in a temperature-controlled (24° C.) and light-controlled room (lights on from 7:00 A.M. to 7:00 P.M.) with food and water freely available. The compounds to be tested were dissolved in dilute hydrochloric acid and injected subcutaneously. Five rats per group were used in each experiment. The rats were decapitated one hour after injection and the brains were excised quickly, frozen on dry ice and stored at -15° C. before analysis. […] Neurosci. Abstr. […] Serum corticosterone levels were determined spectrofluorometrically by the method of Solem et al., Scand. J. Clin. Lab. Invest. […] 80, 1.

[4] = tested on: serum corticosterone; test: corticosterone concentrations in the serum of rats; type: in vivo, rat (Wistar); conditions: sc; subcutaneous; rat, 1 h after injection; p<0.05 vs control; read-out: Minimum effective dose increasing serum corticosterone
Procedure: (§1) Male Wistar rate (HSD/[WI]BR) weighing about 150 g were kept in a temperature-controlled (24° C.) and light-controlled room (lights on from 7:00 A.M. to 7:00 P.M.) with food and water freely available. The compounds to be tested were dissolved in dilute hydrochloric acid and injected subcutaneously. Five rats per group were used in each experiment. The rats were decapitated one hour after injection and the brains were excised quickly, frozen on dry ice and stored at -15° C. before analysis. […] See Fuller et al., Biochem. Pharmacol. 1977, 26, 2087 and Perry et al., Soc. Neurosci. Abstr. 1979, 5, 348. Serum corticosterone levels were determined spectrofluorometrically by the method of Solem et al., Scand. J. Clin. Lab. Invest. 1965, 17, suppl. 80, 1.
The minimum effective doses of these same compounds which produced a statistically significant decrease in 5-HIAA concentration and a statistically significant increase in serum corticosterone concentration are shown in Table II. The minimum effective dose is the lowest dose producing significant differences from a control group (p<0.05).

[5] = tested on: 5-hydroxytryptophan in rat hypothalamus; test: accumulation of 5-hydroxytryptophan in rat hypothalamus (NSD-1015 treated rats); type: in vivo, rat (Wistar); conditions: for 5-Hydroxytryptophan Concentration in Hypothalamus: NSD-1015 100 mg/kg i.p., mean ± SE, n=5, control 1.92 ± 0.07, significant decrease p<0.01
Procedure: as §1
The protocol previously described for neurochemical determinations was repeated with the following modification. To each of the five rats in the treatment group was administered the amino acid decarboxylase inhibitor m-hydroxybenzylhydrazine (also known as NSD-1015). See Euvard et al., Eur. J. Pharmacol. 1980, 63, 65 and Hamon et al., Arch. Pharmacol. 1976, 294, 99. The NSD-1015 was administered at a dose of 100 mg/kg (intraperitoneal) 30 minutes before decapitation and 30 minutes after the dose of the test compound of Example 1 was given.

T1 sequence (P14842 whole entry): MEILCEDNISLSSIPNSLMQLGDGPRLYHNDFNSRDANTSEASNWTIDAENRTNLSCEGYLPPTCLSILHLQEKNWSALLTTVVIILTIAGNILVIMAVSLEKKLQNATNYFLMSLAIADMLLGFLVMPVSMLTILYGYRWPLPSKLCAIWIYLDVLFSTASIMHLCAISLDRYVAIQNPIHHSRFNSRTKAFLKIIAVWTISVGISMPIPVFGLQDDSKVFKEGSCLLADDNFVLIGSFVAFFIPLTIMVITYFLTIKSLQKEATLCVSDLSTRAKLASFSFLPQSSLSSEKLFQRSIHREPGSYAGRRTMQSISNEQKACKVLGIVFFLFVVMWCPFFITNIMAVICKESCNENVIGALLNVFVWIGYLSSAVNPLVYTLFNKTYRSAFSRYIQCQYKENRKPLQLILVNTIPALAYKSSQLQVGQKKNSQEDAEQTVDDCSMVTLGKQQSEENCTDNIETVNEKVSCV

## NCCc1c[nH]c2ccc(O)cc12 [serotonin, 5-hydroxytryptamine, reference compound]
[1]
  IC50: 4 nM

## COC(=O)[C@@H]1C=C2c3cccc4c3[C@@H](CN4)C[C@H]2N(C)C1 [Example 9, (3β)-2,3-Dihydro-methyllysergate]
[1]
  IC50: 40 nM
  Selectivity Ratio: 40
[2]
  IC50: 1620 nM

## CSC[C@@H]1C=C2c3cccc4c3[C@@H](CN4)C[C@H]2N(C)C1 [Example 5, (3β,5β,8β)-9,10-Didehydro-2,3-dihydro-6-methyl-8-(methylthiomethyl) ergoline]
[1]
  IC50: 20 nM
  Selectivity Ratio: 66
[2]
  IC50: 1330 nM
[3]
  minimal effective dose: 0.1 mg/kg
[4]
  minimal effective dose: 1 mg/kg

## CN1C[C@H](CSc2ccccn2)C=C2c3cccc4c3[C@@H](CN4)C[C@H]21 [Example 8, (3β,5β,8β)-9,10-Didehydro-2,3-dihydro-6-methyl-8-(2-pyridylthiomethyl)ergoline]
[1]
  IC50: 3 nM
  Selectivity Ratio: 28
[2]
  IC50: 110 nM

## CN1C[C@H](CC#N)C=C2c3cccc4c3[C@@H](CN4)C[C@H]21 [Example 6, (3β,5β,8β)-9,10-Didehydro-2,3-dihydro-6-methylergoline-8-acetonitrile]
[1]
  IC50: 20 nM
[2]
  IC50: 2120 nM
[3]
  minimal effective dose: 0.1 mg/kg
[4]
  minimal effective dose: 0.1 mg/kg

## C[C@@H]1C=C2c3cccc4c3[C@@H](CN4)C[C@H]2N(C)C1 [Example 1, (3β)-2,3-Dihydrolysergine]
[1]
  IC50: 17 nM
[2]
  IC50: 1660 nM
[3]
  minimal effective dose: 0.03 mg/kg
[4]
  minimal effective dose: 0.1 mg/kg
[5]; 0.01 mg/kg subcutaneous
  5-Hydroxytryptophan Concentration in Hypothalamus: 1.64 ± 0.07 nanomoles per gram
[5]; 0.03 mg/kg subcutaneous
  5-Hydroxytryptophan Concentration in Hypothalamus: 1.19 ± 0.05 nanomoles per gram
[5]; 0.1 mg/kg subcutaneous
  5-Hydroxytryptophan Concentration in Hypothalamus: 0.73 ± 0.02 nanomoles per gram
[5]; 0.3 mg/kg subcutaneous
  5-Hydroxytryptophan Concentration in Hypothalamus: 0.71 ± 0.02 nanomoles per gram
[5]; NSD-1015 treated rats, 0.01-0.3 mg/kg subcutaneous
  5-hydroxytryptophan accumulation in the hypothalamus (in words): dose related decrease in 5-hydroxytryptophan accumulation; also recorded: Significant effects were detected at all of the doses used
[5]; NSD-1015 treated rats, subcutaneous
  dose of maximal reduction of serotonin turnover: 0.1 mg/kg

## C=C1C=C2c3cccc4c3[C@@H](CN4)C[C@H]2N(C)C1 [Example 4, (3β)-2,3-Dihydrolysergene]
[1]
  IC50: 80 nM
  Selectivity Ratio: 48
[2]
  IC50: 3820 nM

## CN1C[C@H](CSc2ccccc2)C=C2c3cccc4c3[C@@H](CN4)C[C@H]21 [Example 7, (3β,5β,8β)-9,10-Didehydro-2,3-dihydro-6-methyl-8-(phenylthiomethyl) ergoline]
[1]
  IC50: 8 nM
  Selectivity Ratio: 26
[2]
  IC50: 210 nM

## C[C@H]1C=C2c3cccc4c3[C@@H](CN4)C[C@H]2N(C)C1 [Example 2, (3β)-2,3-Dihydroisolysergine]
[1]
  IC50: 20 nM
  Selectivity Ratio: at least 100
[2]
  IC50: > 1000 nM
[3]
  minimal effective dose: 0.001 mg/kg
[4]
  minimal effective dose: 0.003 mg/kg

## CCCN1C[C@H](C)C=C2c3cccc4c3[C@@H](CN4)C[C@H]21 [Example 10, (3β,5β,8β)-9,10-Didehydro-2,3-dihydro-8-methyl-6-propylergoline]
[1]
  IC50: 240 nM
[2]
  IC50: > 1000 nM

## CN1C[C@H](CO)C=C2c3cccc4c3[C@@H](CN4)C[C@H]21 [Example 3, (3β)-2,3-Dihydrolysergol]
[1]
  IC50: 26 nM
[2]
  IC50: 2650 nM
[3]
  minimal effective dose: 1 mg/kg
[4]
  minimal effective dose: 0.1 mg/kg
